Measured values: ChEMBL document CHEMBL1221226 (Nat Chem Biol, 2009)

Experiments:
[1] = biological target: Glucagon-like peptide 1 receptor (Homo sapiens, UniProt P43220); experiment: Agonist activity at GLP1R expressed in HEK293 cells assessed as stimulation of cAMP production by luciferase reporter gene assay; assay type: functional, cell-based
[2] = biological target: Glucagon receptor (Homo sapiens, UniProt P47871); experiment: Agonist activity at GCGR expressed in HEK293 cells assessed as stimulation of cAMP production by luciferase reporter gene assay; assay type: functional, cell-based
Glucagon receptor, sequence (P47871 whole entry): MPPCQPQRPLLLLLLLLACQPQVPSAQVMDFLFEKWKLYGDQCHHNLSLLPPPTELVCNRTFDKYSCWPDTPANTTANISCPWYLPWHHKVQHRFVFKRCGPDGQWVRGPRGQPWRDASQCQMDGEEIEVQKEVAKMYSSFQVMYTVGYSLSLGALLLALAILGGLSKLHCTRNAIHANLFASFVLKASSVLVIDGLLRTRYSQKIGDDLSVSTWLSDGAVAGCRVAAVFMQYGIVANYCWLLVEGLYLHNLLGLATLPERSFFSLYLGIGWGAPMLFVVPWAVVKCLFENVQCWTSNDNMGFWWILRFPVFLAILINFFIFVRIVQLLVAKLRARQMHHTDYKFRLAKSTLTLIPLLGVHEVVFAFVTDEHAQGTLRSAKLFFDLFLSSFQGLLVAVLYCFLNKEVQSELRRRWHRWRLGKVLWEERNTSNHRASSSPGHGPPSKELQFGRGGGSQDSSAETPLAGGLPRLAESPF

Glucagon-like peptide 1 receptor, sequence (P43220 whole entry): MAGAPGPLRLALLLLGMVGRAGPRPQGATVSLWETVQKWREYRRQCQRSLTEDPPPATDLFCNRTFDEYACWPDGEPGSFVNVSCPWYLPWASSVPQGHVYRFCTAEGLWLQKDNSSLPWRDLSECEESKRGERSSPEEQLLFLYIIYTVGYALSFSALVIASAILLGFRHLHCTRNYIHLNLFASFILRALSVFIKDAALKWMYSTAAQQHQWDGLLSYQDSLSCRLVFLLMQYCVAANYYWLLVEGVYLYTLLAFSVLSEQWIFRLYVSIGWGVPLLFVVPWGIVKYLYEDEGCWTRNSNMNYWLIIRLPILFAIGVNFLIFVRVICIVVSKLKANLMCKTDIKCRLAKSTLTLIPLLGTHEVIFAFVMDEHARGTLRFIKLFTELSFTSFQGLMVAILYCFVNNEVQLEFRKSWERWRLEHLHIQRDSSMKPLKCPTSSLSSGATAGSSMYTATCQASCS

Row | SMILES | EC50 [1] | EC50 [2]
1 | CSCC[C@H](NC(=O)[C@H](CC(C)C)NC(=O)[C@H](Cc1c[nH]c2ccccc12)NC(=O)[C@H](CCC(N)=O)NC(=O)[C@@H](NC(=O)[C@H](Cc1ccccc1)NC(=O)[C@H](CC(=O)O)NC(=O)[C@H](CCC(N)=O)NC(=O)[C@H](C)NC(=O)[C@H](CCCNC(=N)N)NC(=O)[C@H](CCCNC(=N)N)NC(=O)[C@@H](NC(=O)[C@H](CC(=O)O)NC(=O)[C@H](CC(C)C)NC(=O)[C@H](Cc1ccc(O)cc1)NC(=O)[C@H](CCCCN)NC(=O)[C@H](CO)NC(=O)[C@H](Cc1ccc(O)cc1)NC(=O)[C@H](CC(=O)O)NC(=O)[C@H](CO)NC(=O)[C@@H](NC(=O)[C@H](Cc1ccccc1)NC(=O)[C@@H](NC(=O)CNC(=O)[C@H](CCC(N)=O)NC(=O)[C@H](CO)N[C@@H](Cc1cnc[nH]1)C(=O)O)[C@@H](C)O)[C@@H](C)O)[C@@H](C)O)C(C)C)C(=O)N[C@@H](CC(N)=O)C(=O)N[C@H](C(N)=O)[C@@H](C)O | 0.58 nM | 0.13 nM
2 | CSCC[C@H](NC(=O)[C@H](CC(C)C)NC(=O)[C@H](Cc1c[nH]c2ccccc12)NC(=O)[C@H](CCC(N)=O)NC(=O)[C@@H](NC(=O)[C@H](Cc1ccccc1)NC(=O)[C@H](CC(=O)O)NC(=O)[C@H](CCC(N)=O)NC(=O)[C@H](C)NC(=O)[C@H](CCCN=C(N)N)NC(=O)[C@H](CCCN=C(N)N)NC(=O)[C@H](CCC(=O)O)NC(=O)[C@H](CC(=O)O)NC(=O)[C@H](CC(C)C)NC(=O)[C@H](Cc1ccc(O)cc1)NC(=O)[C@H](CCCCN)NC(=O)[C@H](CO)NC(=O)[C@H](Cc1ccc(O)cc1)NC(=O)[C@H](CC(=O)O)NC(=O)[C@H](CO)NC(=O)[C@@H](NC(=O)[C@H](Cc1ccccc1)NC(=O)[C@@H](NC(=O)CNC(=O)[C@H](CCC(N)=O)NC(=O)[C@H](CO)N[C@@H](Cc1cnc[nH]1)C(=O)O)[C@@H](C)O)[C@@H](C)O)C(C)C)C(=O)N[C@@H](CC(N)=O)C(=O)N[C@H](C(N)=O)[C@@H](C)O | 0.17 nM | 0.049 nM

Next, values leading:

Row | EC50 [1] | EC50 [2] | SMILES
3 | 0.028 nM | 2.4 nM | CC[C@H](C)[C@H](NC(=O)[C@H](Cc1ccccc1)NC(=O)[C@H](CCC(=O)O)NC(=O)[C@H](CCCCN)NC(=O)[C@H](C)NC(=O)[C@H](C)NC(=O)[C@H](CCC(N)=O)NC(=O)[C@H](CCC(=O)O)NC(=O)[C@H](CC(=O)O)NC(=O)[C@H](CC(C)C)NC(=O)[C@H](Cc1ccc(O)cc1)NC(=O)[C@H](CCCCN)NC(=O)[C@H](CO)NC(=O)[C@H](Cc1ccc(O)cc1)NC(=O)[C@H](CC(=O)O)NC(=O)[C@H](CO)NC(=O)[C@@H](NC(=O)[C@H](Cc1ccccc1)NC(=O)[C@@H](NC(=O)CNC(=O)[C@H](CCC(=O)O)NC(=O)[C@H](CO)N[C@@H](Cc1cnc[nH]1)C(=O)O)[C@@H](C)O)[C@@H](C)O)C(=O)N[C@@H](C)C(=O)N[C@@H](Cc1c[nH]c2ccccc12)C(=O)N[C@@H](CC(C)C)C(=O)N[C@@H](CCSC)C(=O)N[C@@H](CC(N)=O)C(=O)N[C@H](C(=O)O)[C@@H](C)O
4 | 0.028 nM | 0.087 nM | CSCC[C@H](NC(=O)[C@H](CC(C)C)NC(=O)[C@H](Cc1c[nH]c2ccccc12)NC(=O)[C@H](CCC(N)=O)NC(=O)[C@@H](NC(=O)[C@H](Cc1ccccc1)NC(=O)[C@H](CC(=O)O)NC(=O)[C@H](CCCCN)NC(=O)[C@H](C)NC(=O)[C@H](C)NC(=O)[C@H](CCCNC(=N)N)NC(=O)[C@H](CCC(=O)O)NC(=O)[C@H](CC(=O)O)NC(=O)[C@H](CC(C)C)NC(=O)[C@H](Cc1ccc(O)cc1)NC(=O)[C@H](CCCCN)NC(=O)[C@H](CO)NC(=O)[C@H](Cc1ccc(O)cc1)NC(=O)[C@H](CC(=O)O)NC(=O)[C@H](CO)NC(=O)[C@@H](NC(=O)[C@H](Cc1ccccc1)NC(=O)[C@@H](NC(=O)CNC(=O)[C@H](CCC(N)=O)NC(=O)[C@H](CO)N[C@@H](Cc1cnc[nH]1)C(=O)O)[C@@H](C)O)[C@@H](C)O)C(C)C)C(=O)N[C@@H](CC(N)=O)C(=O)N[C@H](C(N)=O)[C@@H](C)O
5 | 0.075 nM | 0.068 nM | CSCC[C@H](NC(=O)[C@H](CC(C)C)NC(=O)[C@H](Cc1c[nH]c2ccccc12)NC(=O)[C@H](CCC(N)=O)NC(=O)[C@@H](NC(=O)[C@H](Cc1ccccc1)NC(=O)[C@H](CCC(=O)O)NC(=O)[C@H](CCCCN)NC(=O)[C@H](C)NC(=O)[C@H](CCCNC(=N)N)NC(=O)[C@H](CCCNC(=N)N)NC(=O)[C@H](CCC(=O)O)NC(=O)[C@H](CC(=O)O)NC(=O)[C@H](CC(C)C)NC(=O)[C@H](Cc1ccc(O)cc1)NC(=O)[C@H](CCCCN)NC(=O)[C@H](CO)NC(=O)[C@H](Cc1ccc(O)cc1)NC(=O)[C@H](CC(=O)O)NC(=O)[C@H](CO)NC(=O)[C@@H](NC(=O)[C@H](Cc1ccccc1)NC(=O)[C@@H](NC(=O)CNC(=O)[C@H](CCC(N)=O)NC(=O)[C@H](CO)N[C@@H](Cc1cnc[nH]1)C(=O)O)[C@@H](C)O)[C@@H](C)O)C(C)C)C(=O)N[C@@H](CC(N)=O)C(=O)N[C@H](C(N)=O)[C@@H](C)O
